{"source": "patent US20120178682A1", "about": "“GB1 Peptidic Compounds and Methods for Making and Using the Same” (priority 2010, published 2012)", "key": {"[1]": {"target": "D-VEGF", "assay": "SPR affinity measurements of GB1 peptidic compounds on immobilized D-VEGF", "assay_type": "binding", "settings": "target D-VEGF", "procedure": "VEGF binding compounds were expressed. Binding affinities were measured using the […] SPR system. SPR analysis was performed on a ProteOn XPR36 Protein Interaction Array System (BioRad). Chemically synthesized L-VEGF, D-VEGF and VEGF165 (Peprotech) were immobilized in 50 mM Sodium Acetate (pH 5.5) to a non-dilute EDAC/sulfo-NHS activated GLC surface on separate channels using a flow rate of […] for 5 minutes in the vertical direction. Immobilization levels were monitored to ensure immobilization of approximately 500 response units of each protein. The domains were then stabilized with PBS for 30 seconds and 0.85% H3PO4 for 18 seconds each at […]. GB1 variants were diluted in PBS plus 0.05% Tween 20 at a starting concentration of 200 nM. The binders were further diluted with PBST 2-fold in series to produce 5 concentrations of variants. A PBST blank was also included. GB1 variant injection parameters were: […], 60 seconds contact time, and 600 seconds dissociation time, in the horizontal direction. VEGF proteins were regenerated with an injection of 0.85% H3PO4 at a flow rate of […] followed by a PBST wash of 30 seconds at […] flow rate."}, "[2]": {"system": "D-VEGF", "assay": "Competition assay (phage ELISA) with VEGF binding peptides v114 and v128a on D-VEGF", "settings": "100 μM peptide; anti-M13-HRP detection", "procedure": "(§1) To test whether the D-VEGF and L-VEGF binders have the potential to block VEGF-VEGFR1 interaction, a competition assay was performed using VEGF binding peptides v114 and v128a described by Fairbrother et al. (“Novel peptides selected to bind vascular endothelial growth factor target the receptor-binding site,” Biochemistry, 1998, 37, 17754-64). These peptides block the binding of VEGF to VEGFR1 and inhibit angiogenesis.\n(§2) The peptides v114 ([…]-NH2; SEQ ID NO:296) and v128a ([…]-NH2; SEQ ID NO:297) were prepared in both D- and L-forms (CSBio, Inc.). The following protocol was used in the competitive binding assays: • 1. 5 wells of NUNC 96 well maxisorb plate were coated with D-VEGF (5 μg/ml in PBS) for testing clone E01. Similarly 5 wells were coated with L-VEGF (5 μg/ml in PBS) for each of E01 and B03. The plate was incubated at room temperature with gentle shaking for 2 hours; • 2. The plates were blocked with PBS+0.2% BSA (5 wells+1 extra well for control) for 1 hr at room temperature with gentle shaking; • 3. In the meantime, peptides were diluted in PBT buffer to a concentration of 150 μM; • 4. The plate was washed four times with PT buffer; • 5. 66 μl of each diluted peptide was added to 4 different wells coated with L or D-VEGF (depending on the clone tested). 66 μl of PBT was added to control wells (1 VEGF coated well+1 control well). Incubate for 30 min at room temperature with shaking; • 6. Add 33 μl of fresh phage supernatant from overnight culture to each of the six wells containing peptide solution. Incubate for 15 min at room temperature with shaking. • 7. Wash plate 6 times with PT buffer; • 8. Add 66 μl of anti-M13-HRP antibody (1:3000 dilution in PBT) to each well and incubate for 30 min at room temperature with shaking; • 9. Wash plate 4 times with PT buffer. Develop and read plates at 450 nm.\nPhage binding to L and D-VEGF was tested in the presence and absence of 100 μM of each peptide (e.g., at 100 times affinity to saturate VEGF) using anti-M13-HRP to detect the bound phage."}, "[3]": {"system": "D-VEGF", "assay": "Phage ELISA after overnight incubation with GuHCl or urea", "assay_type": "binding", "settings": "various concentrations of urea or GuHCl; phage incubated overnight", "procedure": "During screening for specific binding to target, the presence of a chaotropic agent/denaturant can help select clones with improved stability and affinity. Phage were incubated overnight in the presence of various concentrations of GuHCl and urea and assayed using an ELISA method. […] Various concentrations GuHCl were added to selection wells prior to elution with 100 mM HCl. The selected clones were identified by competitive ELISA and analyzed for IC50 using similar protocols to those described above."}, "[4]": {"assay": "Melting temperature (Tm) by circular dichroism (CD)", "assay_type": "physicochemical", "settings": "chemically synthesized compound; CD spectroscopy", "excerpt": "4.3 Determination of Melting Temperature (Tm) by Circular Dichroism (CD)"}, "[5]": {"target": "T1, L-VEGF (Homo sapiens, UniProt P15692)", "T1 construct": "Synthetic L-VEGF-A (8-109) was folded under the following conditions; made in house; host or cells: total chemical synthesis (SPPS plus native chemical ligation), no expression host", "T1 sequence (P15692 214-315)": "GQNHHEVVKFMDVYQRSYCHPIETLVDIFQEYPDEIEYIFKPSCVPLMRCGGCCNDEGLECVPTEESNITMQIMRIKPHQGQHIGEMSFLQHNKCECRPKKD", "assay": "Competition assay (phage ELISA) with VEGF binding peptides v114 and v128a on L-VEGF", "settings": "100 μM peptide; anti-M13-HRP detection", "procedure": "as §1\nas §2, with “Incubate for 30 min at room temperature with shaking; • 6. Add 33 μl of fresh phage supernatant from overnight culture to each of the six wells containing peptide solution. Incubate for 15 min at room temperature with shaking. • 7. Wash plate 6 times with PT buffer; • 8. Add 66 μl of anti-M13-HRP antibody (1:3000 dilution in PBT) to each well and incubate for 30 min at room temperature with shaking; • 9. Wash plate 4 times with PT buffer.” left out, “nm. […]” for “nm.”"}, "[6]": {"settings": "Table 2, GB1-E01 double mutants"}}, "note": "Bridge positions count the residues as written; N and C are the ends. Square brackets hold non-standard residues; d marks the D form. Ends that are not written are not given here.", "data": [{"substance": "E01: pre-affinity matured parent D-VEGF binding GB1 clone, SEQ ID NO:79 (TYKLILNGKTLKGETTTEAVDVYDAFDVFFVYAASNFSDFDDWTYDDATKTFTVTE) [Clone E01]", "values": [{"measurement": "Kd", "setting": "[1]; Table 1", "value": 13.4, "unit": "nM"}, {"measurement": "Koff", "setting": "[1]; Table 1", "value": 0.00347, "unit": "s⁻¹"}, {"measurement": "Kon", "setting": "[1]; Table 1, E01 point mutants expressed in E. coli", "value": 260000, "unit": "M⁻¹ s⁻¹"}, {"measurement": "Kd", "setting": "[1]; [6]", "value": 3.46, "unit": "nM"}, {"measurement": "Koff", "setting": "[1]; [6]", "value": 0.00117, "unit": "s⁻¹"}, {"measurement": "Kon", "setting": "[1]; [6]", "value": 338000, "unit": "M⁻¹ s⁻¹"}, {"measurement": "phage binding to D-VEGF in the presence of D-v114", "setting": "[2]", "value": "completely blocked"}, {"measurement": "phage binding to D-VEGF in the presence of D-v128a", "setting": "[2]", "value": "partially blocked"}, {"measurement": "phage binding to D-VEGF in the presence of L-peptides (L-v114, L-v128a)", "setting": "[2]", "value": "do not inhibit"}]}, {"substance": "TYKLILNGKTLKGEFTLEAVDLFDAFDVFFVYAASNFSFFDDWTYDDATKTFTVTE ([dT][dY][dK][dL][dI][dL][dN]G[dK][dT][dL][dK]G[dE][dF][dT][dL][dE][dA][dV][dD][dL][dF][dD][dA][dF][dD][dV][dF][dF][dV][dY][dA][dA][dS][dN][dF][dS][dF][dF][dD][dD][dW][dT][dY][dD][dD][dA][dT][dK][dT][dF][dT][dV][dT][dE]; not fully specified) [RFX025]", "values": [{"measurement": "binding to D-VEGF in presence of denaturant", "setting": "[3]", "value": "bind specifically"}, {"measurement": "melting temperature (Tm)", "setting": "[4]", "value": 66.6, "unit": "°C"}]}, {"substance": "TYKLILNGKTLKGETTTEAVDFYYAFSVFFSYASSNSSDYVSWTYDDATKTFTVTE [Clone B03]", "values": [{"measurement": "phage binding to L-VEGF in the presence of D-peptides (D-v114, D-v128a)", "setting": "[5]", "value": "do not inhibit"}]}, {"substance": "TYKMILNGKTLKSECTTEAVDLFDAFDVLFVCAASNFSFIDDWTYDDATKTFTVTE ([dT][dY][dK][dM][dI][dL][dN]G[dK][dT][dL][dK][dS][dE][dC][dT][dT][dE][dA][dV][dD][dL][dF][dD][dA][dF][dD][dV][dL][dF][dV][dC][dA][dA][dS][dN][dF][dS][dF][dI][dD][dD][dW][dT][dY][dD][dD][dA][dT][dK][dT][dF][dT][dV][dT][dE]; disulfide 15-32 (inferred); not fully specified) [RFX002]", "values": [{"measurement": "binding to D-VEGF in presence of denaturant", "setting": "[3]", "value": "bind specifically"}, {"measurement": "melting temperature (Tm)", "setting": "[4]", "value": 66.9, "unit": "°C"}]}]}
